Results from the METLIN SMRT retention time set (Domingo-Almenara et al. 2019).

Test: gradient 5% acetonitrile 3 min, to 50% in 2 min, to 85% in 15 min, held 3 min, 100 µL/min
Settings: column: Zorbax Extend-C18 2.1 x 50 mm; eluents: water / acetonitrile, 0.1% formic acid
Outline: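 Using water and acetonitrile that each contained 0.1% formic acid, mixtures of ~100 pure standards were separated at 100 μL/min on a Zorbax Extend-C18 column (2.1 × 50 mm, 1.8 μm). The HPLC fed a quadrupole time-of-flight mass spectrometer working in positive and negative ionization mode, with dead and dwell volumes of 40 μL and 900 μL. Data were acquired over 3 months. Retention time was read from computationally picked adduct peaks after manual inspection of each.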

RP-LC retention time [s] | SMILES
904 | CCOC(=O)C1CCN(c2cc3c(cc2NC(=O)c2ccco2)n(C)c(=O)n3C)CC1
906 | c1ccc(-c2csc(Nc3ncccn3)n2)cc1
829 | Cc1ccc(C)c(N2CCN(C(=O)c3cnc4ncnn4c3C)CC2)c1
935 | Cc1nnc(NC(=O)c2cn(Cc3cccc(F)c3)nc2OCc2cccc(F)c2)s1
971 | CSc1cccc(NC(=O)N2CCc3c(c(C(=O)N4CCCC4)nn3C)C2)c1
679 | COc1cc(-c2nc3ccc(Cl)cn3c2Nc2ccc3c(c2)OCO3)ccc1O
1130 | Cc1oc(C2CCC2)nc1C(=O)NCc1ccccc1C(F)(F)F
790 | O=C(c1ccc(Cl)s1)N1CCCC(CCc2nnc(C3CCOCC3)o2)C1 (stereo not given)
540 | COc1ccc(C(O)CN2CCN(c3ccccn3)CC2)cc1 (stereo not given)
1040 | CN1C(=O)COc2ccc(-c3csc(NC(=O)c4ccc(Br)cc4)n3)cc21
962 | CCC(C(=O)Nc1ccc(-c2nc(Cn3cccn3)c(C)o2)cc1)c1ccccc1 (stereo not given)
660 | COCCNC(=O)N1CCCn2nc(-c3ccc(OC)cc3)cc2C1
664 | CCn1cc(CC(=O)Nc2ccc(OC)c(OC)c2)c2cccnc21
963 | COc1ccccc1N1CCN(C(=O)c2sc3ncccc3c2-n2cccc2)CC1
690 | Cc1ccsc1CN1CC(Oc2ccc(-c3noc(C4CCOCC4)n3)cc2)C1
1000 | Cc1cccc(OCc2nc(CCN(C)C(=O)Nc3cc(F)ccc3F)no2)c1
626 | O=C(Cc1csc(NC(=O)c2ccc[nH]c2=O)n1)NCc1cccs1
827 | O=S(=O)(c1ccc2c(c1)-c1oncc1CO2)N1CCC2(CC1)OCCO2
618 | Cn1ncc2c3ccccc3n(CCCC(=O)NCCN3CCCCC3)c2c1=O
708 | COc1cc(OC)c(NC(=O)Nc2c(-c3ccc(F)cc3)nc3ccccn23)cc1Cl
746 | COc1ccc(-c2nnc(-c3cccnc3NCCCN3CCCC3=O)o2)cc1

RP-LC retention time [s] | SMILES
850 | O=C(Nc1cccc(Cl)c1)C1CCN(S(=O)(=O)c2cc(C(=O)N3CCOCC3)cs2)CC1
566 | O=C(C1CCc2nc(N3CCCC3)ncc2C1)N1CCN(Cc2ccc3c(c2)OCO3)CC1 (stereo not given)
696 | COC(=O)c1cccc(Nc2c(-c3cccc(O)c3)nc3cnccn23)c1
717 | CCn1c(CCc2ccccc2NS(=O)(=O)c2ccc3c(c2)OCCO3)nc2ccccc21
1000 | CC(C)c1ccc(S(=O)(=O)c2ccc(=O)n(CC(=O)N3CCN(c4ccc(F)cc4)CC3)n2)cc1
705 | Cc1ccc(C2NC(=O)c3ccccc3N2)s1 (stereo not given)
668 | Cn1c(=O)n(C2CCCN(C(=O)Cc3ccccc3)C2)c2ncncc21 (stereo not given)
1320 | CCOc1ccc(-c2noc(Cc3nc(-c4ccc(C)cc4)cs3)n2)cc1
578 | CCN1CCN(CCCNC(=O)C2=Cc3cc(OC)ccc3OC2)CC1
576 | Cc1noc([C@@H]2CN(Cc3cc(F)ccc3F)C[C@H]2CO)n1
741 | Cc1ccc(NS(=O)(=O)c2cc(-c3[nH]ncc3C(=O)N3CCCC3)oc2C)cc1F
797 | Cc1cc2nc(-c3ccccn3)c(-c3ccccn3)nc2cc1C
771 | COC(=O)c1c(-c2ccc(F)cc2)noc1NCc1ccccn1
883 | Cc1nc(Nc2ccc(F)cn2)sc1C(=O)NCCCc1ccccc1
578 | COCCNC(=O)N1CC(c2nc(C3CC3)no2)C1
587 | Cc1nn(CCCC(=O)N2CCN(c3ccccn3)CC2)c(=O)c2cc3sccc3n12
753 | Cc1ccc(CNC(=O)Cn2nc(C(=O)N3CCOCC3)c3ccccc32)cc1
948 | CN(C(=O)Cn1cnc2c(-c3ccc(F)cc3)csc2c1=O)c1ccccc1
790 | CC(C)C(=O)Nc1cc2c(cc1S(=O)(=O)c1ccc(F)cc1)n(C)c(=O)n2C
778 | O=c1c(NCCCc2ccccc2)nc2ccncc2n1Cc1ccccc1
840 | COc1ccc2[nH]cc(CCNC(=O)c3cccc(Cl)c3)c2c1

Second part, the molecule before the results:

SMILES | RP-LC retention time [s]
Cc1ccc2c(c1)N(C(=O)CCC(=O)NCCCN1CCC(N3CCCCC3)CC1)CC(C)O2 (stereo not given) | 576
CCOC(=O)Cc1nc(-c2cncc(Br)c2)n[nH]1 | 673
COc1ccc(CCNC(=O)COc2cc(=O)n3ccccc3n2)cc1 | 631
CCc1ccc(-c2nc3sc(C(=O)NC)c(C)n3c2NCCOC)cc1 | 754
CC(=O)N1CCCCC1c1nc(-c2cccnc2)no1 (stereo not given) | 663
Nc1nc(N2CCOCC2)ncc1C(=O)NCc1ccccc1F | 626
CN(C)c1ccc(C(=O)N2CCCC2c2nc(-c3ccc(F)cc3)no2)cc1 (stereo not given) | 1020
CCN1c2ccccc2C(=O)NC12CCN(C(=O)c1ccccc1OC)CC2 | 732
Cc1ccccc1CNC(=O)C1(C)CCCN(C(=O)Nc2ccccc2Cl)C1 (stereo not given) | 1010
CCOc1ccc(CN2CCc3nc(N4CCN(c5ccccc5F)CC4)ncc3C2)cc1 | 834
C=CCN(CC=C)C(=O)Cn1c(C2CC(=O)N(c3ccc(OC)cc3)C2)nc2ccccc21 (stereo not given) | 682
CCOC(=O)c1noc2nc(C)nc(NCC3CCN(Cc4cccc(C)c4)CC3)c12 | 609
CC(=O)Nc1ccc(OC(=O)Oc2ccc(NC(C)=O)cc2)cc1 | 724
COc1ccc2nc(C(=O)NCc3ccccc3F)cn2n1 | 806
COc1ccc(Cl)cc1S(=O)(=O)N1CCC(C(=O)NCc2cccnc2)CC1 | 625
CCCCn1c(=O)c2ccccc2n(Cc2nc(-c3ccccc3OC)no2)c1=O | 1050
O=C(CN1C(=O)CCS(=O)(=O)c2ccccc21)Nc1ccc(Br)cc1 | 774
Cc1ccc(S(=O)(=O)N2C[C@@H]3C[C@H]2C[C@@H]3NC(=O)c2ccccc2)cc1Cl | 946
O=C1NCCCCCCN(C(=O)c2cnccn2)[C@H]2CCCC[C@@H]12 | 684
Cc1ccc(C2CCCN2C(=O)c2cc(-c3ccco3)on2)cc1 (stereo not given) | 1020
COc1c(C(=O)NC2CC2)sc2ccc(Cl)cc12 | 965
CCCCNC(=O)Cc1c(C)n(C)c2nc(-c3ccccc3)nn2c1=O | 665
Cc1cc(C)cc(NC(=O)N(C)CC2CCOC2)c1 (stereo not given) | 743
CC1=NS(=O)(=O)N(C)C=C1C(=O)OCc1nc(-c2ccc(C)cc2)no1 | 977

SMILES | RP-LC retention time [s]
O=c1c2oc3ccccc3c2ncn1Cc1nc(-c2cccc(C(F)(F)F)c2)no1 | 1040
O=C(C1COc2ccccc2O1)N1CC(n2ccnc2)C1 (stereo not given) | 594
CCN(CCNC(=O)C1CCN(c2nnc3ccc(Cl)cn23)CC1)c1ccccc1 | 629
Cc1nc2cccnc2n1CC1CCCN(S(=O)(=O)c2cccc(Br)c2)C1 (stereo not given) | 735
O=S(=O)(c1ccc(F)cc1F)N1CCC(c2noc(-c3ccc(F)cc3)n2)CC1 | 1130
OCCN(Cc1ccccc1)CC(O)COc1cccc2ccccc12 (stereo not given) | 601
Cc1ccc(N2C=C(C(=O)N3CCOCC3)S(=O)(=O)c3ccc(F)cc32)cc1F | 822
CC1=C(c2ccccc2)S(=O)(=O)N=C1N1CCCN(C(=O)c2cccnc2)CC1 | 664
COc1ccc(NC(=O)CSc2nc3nc(C)cc(C)n3n2)cc1OC | 652
Cc1cc(C)c(S(=O)(=O)N(CCN2CCCCC2C)CC(=O)N2CCNCC2)c(C)c1 (stereo not given) | 601
O=S(=O)(c1cccn2c(SCc3ccncc3)nnc12)N1CCN(c2ccc(F)cc2)CC1 | 663
Cc1ccc(C(=O)Nc2ccc3ncnc(N4CCCCC4)c3c2)s1 | 701
Cc1noc(-c2nn(C)c3c2CN(C(=O)C2CCCC2)CC3)n1 | 722
CCn1c(=O)sc2cc(S(=O)(=O)N3CCC(C(=O)Nc4ccc(C)c(Cl)c4)CC3)ccc21 | 905
O=C(CCc1conc1-c1ccc(F)cc1)NCC1CCCCC1 | 996
COc1ccc(CCc2nc3nccc(-c4cccs4)n3n2)cc1 | 932
O=C(CN1CCN(Cc2ccc(F)cc2)C1=O)NC1CCN(Cc2ccccc2)CC1 | 618
Cc1cc(NC(=O)Cn2nc(N3CCCC3)c3ccccc3c2=O)ccc1Br | 1060
CCOc1ncccc1C(=O)N1CCN(c2ccc(-c3ccc(OC)c(OC)c3)nn2)CC1 | 606
O=C(NC1CC1)c1ccc(-n2cccc2)nc1 | 728
Cc1ccc(Cn2cc(-c3noc(C4CCCC4)n3)nn2)cc1 | 1070
CON(C)C(=O)N1N=C(c2cc(F)ccc2F)S[C@@]1(CCCN)c1ccccc1 | 792
CCOc1ccccc1C(=O)NCC1CCN(C(=O)c2ccccc2F)CC1 | 756
O=C(NCCc1ccccc1)C(=O)NCC(c1ccc2c(c1)OCO2)N1CCOCC1 (stereo not given) | 672
